Experimental data taken from article PMC10107299, “Neutralizing the Impact of the Virulence Factor LecA from Pseudomonas aeruginosa on Human Cells with New Glycomimetic Inhibitors” (Angewandte Chemie (International Ed. in English), 2023).

Legend:
plasma protein [1] = assay: Plasma protein binding (rapid equilibrium device), murine plasma; type: in vitro ADME, mouse; conditions: 1 µM
Experimental: (§1) mixer (Eppendorf). Acetonitrile and caffeine were dispensed using a Mantis Formulatrix. Then samples were centrifuged for 20 min at 2.270 x g at 4 °C and the supernatants were transferred to 96-well Greiner V-bottom plates. Peak areas of each compound and of the internal standard were analyzed using the MultiQuant 3.0 software (AB Sciex). Peak areas of the respective compound were normalized to the internal standard peak area and to the respective peak areas at time point 0 min: (C/D)/(A/B) with A: peak area of the compound at time point 0 min, B: peak area of the internal standard at time point 0 min, C: peak area of the compound at the respective time point, D: peak area of the internal standard at the respective time point. […]
(§2) Assessment of plasma protein binding
(§3) Plasma protein binding was assessed using the rapid equilibrium device (RED) system from ThermoFisher. Compounds were dissolved in DMSO. […]
(§4) high plasma protein binding. Compounds were diluted in murine plasma (from CD-1 mice, pooled) or in human plasma (human donors, both genders, pooled) to a final concentration of 1 µM. Dialysis buffer and plasma samples were added to the respective chambers according the manufacturer’s protocol. The RED plate was sealed with a tape and incubated at 37 °C for 2 hours at 800 rpm on an Eppendorf MixMate vortex-mixer. Then samples were withdrawn from the respective chambers. To 25 µL of each dialysis sample, 25 µL of plasma and to 25 µL of plasma sample, 25 µL of dialysis buffer was added. Then 150 µL ice-cold extraction solvent (ACN/H2O (90:10) containing 12.5 ng/mL caffeine as internal standard) was added. Samples were incubated for 30 min on ice. Then samples were centrifuged at 4 °C at 2270 x g for 10 min.
(§5) Supernatants were transferred to Greiner V-bottom 96-well plates and sealed with a tape. The […]
(§6) percentage of bound compound was calculated as follows:
(§7) (1) % free = (concentration buffer chamber / concentration plasma chamber) *100 […]
(§8) Samples were analyzed using an Agilent 1290 Infinity II HPLC system coupled to an AB Sciex QTrap 6500plus mass spectrometer. LC conditions were as follows: column: Agilent […]
(§9) Zorbax Eclipse Plus C18, 50x2.1 mm, 1.8 µm; temperature: 30 °C; injection volume: 5 µL per […]
(§10) sample; flow rate: 700 µL/min. Samples were run under acidic and buffered conditions.
(§11) Solvents for acidic conditions: A1: water + 0.1% formic acid; solvent B1: 95% acetonitrile/5% […]
(§12) H2O + 0.1% formic acid; solvents for buffered conditions: A2: 95% water + 5% acetonitrile + […]
(§13) 5 mM ammonium acetate + 40 µL/L acetic acid; B2: 95% acetonitrile + 5% water + 5 mM […]
(§14) ammonium acetate + 40 µL/L acetic acid. The same gradient was applied for acidic and […]
(§15) buffered conditions: 99% A at 0 min, 99% A until 1 min, 99% - 0% A from 1 min to 4.0 min, […]
(§16) 0% A until 5.0 min. Mass transitions for controls and compounds are depicted in the following […]

LecA-treated H1299 cells = assay: Scratch-wound healing assay; type: cell-based, human; conditions: 3.9 μM LecA; for Wound closure after 24 h: 100 μM inhibitor
Description: The opportunistic bacterium P. aeruginosa depends on favorable circumstances to infect the host, such as a suppressed immunity or wounded skin.[34, 35] Chronic infection of wounds with P. aeruginosa increases the risk of nosocomial spread, are difficult to treat and after systemic dissemination can result in a fatal outcome in patients. In a previous study, we investigated the effect of the fucose‐binding P. aeruginosa lectin LecB on epithelial wound healing.[36] […] Here, we investigated whether LecA also impairs the same physiological process. To this end, H1299 cell monolayers were grown, and after scratching with a pipette tip, wound closure was monitored microscopically (Figure 5a). […] The mode of action of LecA in the wound healing process remains elusive. […] Importantly, when LecA was added to the cells together with L2 (10 μM and 100 μM, respectively), the wound healed at a similar rate to the control in absence of LecA. Remarkably, in presence of 10 μM L2, cell migration was restored to about 70 % compared to the negative control, and the wound closed by 80 % after 24 h of incubation with 100 μM L2 (Figure 5b). […]
using NIS-Element Confocal 4.20 from Nikon and ImageJ 1.52a from Laboratory for Optical and Computational Instrumentation.
Cell proliferation (MTT) assay […]
Subsequently, 10 μL of MTT labelling solution was added to each well and the cells were incubated for another 4 h at 37 °C. […] The next day, the absorbance of the samples was measured at 550 nm using a BioTek microplate reader (BioTek Instruments Inc., Winooski, VT, USA). The data were analyzed using Microsoft Excel and GraphPad Prism […]
2 x 10^5 cells were seeded on 12-well plates and formed a confluent monolayer after 24 h. […] The samples were imaged with an EVOS microscope (PEQLAB by VWR Life Sciences, Avantor Performance Materials Inc., Center Valley, PA, USA) and analyzed with ImageJ and Microsoft Excel. […] Experiment was repeated independently three times (N = 3) and evaluated with two tailed, […]

plasma protein [2] = assay: Plasma protein binding (rapid equilibrium device), human plasma; type: in vitro ADME; conditions: 1 µM
Experimental: as §1, §2, §3, §4, §5, §6, §7, §8, §9, §10, §11, §12, §13, §14, §15, §16

[3] = Thermodynamic solubility in TBS/Ca2+ buffer; type: physicochemical
Description: Next, we quantified the solubility of at least one representative of each new class and of one parent bisacylhydrazone in aqueous media (Table 1).

O=C(CCc1ccc(O[C@@H]2O[C@H](CO)[C@H](O)[C@H](O)[C@H]2O)cc1)Nc1ccc(OCCOc2ccc(NC(=O)CCc3ccc(O[C@@H]4O[C@H](CO)[C@H](O)[C@H](O)[C@H]4O)cc3)cn2)nc1 [Compound H2]
PPB Mouse (plasma protein [1]): 97.6 ± 2.1%

Cc1ccc(NC(=O)CCc2ccc(O[C@@H]3O[C@H](CO)[C@H](O)[C@H](O)[C@H]3O)cc2)cc1S(=O)(=O)O [Compound K2]
Wound closure after 24 h (LecA-treated H1299 cells): about 50%

O=C(CCc1ccc(O[C@@H]2O[C@H](CO)[C@H](O)[C@H](O)[C@H]2O)cc1)Nc1ccc(CCc2ccc(NC(=O)CCc3ccc(O[C@@H]4O[C@H](CO)[C@H](O)[C@H](O)[C@H]4O)cc3)cc2S(=O)(=O)O)c(S(=O)(=O)O)c1 [Compound L2]
Cell migration / wound closure restored after 24 h (LecA-treated H1299 cells; 10 μM inhibitor): about 70% | Wound closure after 24 h (LecA-treated H1299 cells): 80% | PPB Human (plasma protein [2]): 38.5 ± 12.4% | PPB Mouse (plasma protein [1]): 14.5 ± 6.8% | solubility ([3]; TBS/Ca2+ buffer, pH 7.4, thermodynamic from solid, aqueous buffer, from solid, read-out: Solubility S (dissolved from solid form in aqueous buffer)): > 1500 µM | Increase in solubility versus parent bisacylhydrazones ([3]; pH 7.4): over 1000 fold | solubility thermodynamic ([3]; pH 7.4, aqueous buffer, thermodynamic from solid, TBS/Ca2+ buffer w/o DMSO, N=1, read-out: Solubility S (thermodynamic)): > 1500 µM
